Experimental data: the NIST ThermoML archive (doi:10.1016/j.jct.2007.10.002)

How the values were obtained:
[1] = refractive index (Na D-line) (dimensionless); details: 298.15 K; 101.33 kPa; Liquid; Standard Abbe refractometry
[2] = 298.15 K, 101 kPa, Liquid; for viscosity: Capillary tube (Ostwald / Ubbelohde) method; for mass density: Vibrating tube method
[3] = refractive index (Na D-line) (dimensionless); xn = mol fraction of the nth substance listed; details: 298.15 K, 101 kPa, Liquid, Standard Abbe refractometry
[4] = xn = mol fraction of the nth substance listed; details: 298.15 K, 101 kPa, Liquid; for viscosity: Capillary tube (Ostwald / Ubbelohde) method; for mass density: Vibrating tube method

CCCCn1cc[n+](C)c1C.F[B-](F)(F)F [1-butyl-2,3-dimethylimidazolium tetrafluoroborate]
Details	mass density [kg/m3]	refractive index	viscosity [mPa·s]
[1]	–	1.433	–
[2]	1191.2	–	455.81

CCCCn1cc[n+](C)c1C.F[B-](F)(F)F [1-butyl-2,3-dimethylimidazolium tetrafluoroborate] + O
Details	mass density, [4] [kg/m3]	refractive index, [3]	viscosity, [4] [mPa·s]
x1 = 0.0085	1012.56	–	1.06
x1 = 0.0397	1053.33	1.362	1.83
x1 = 0.1068	1100.33	1.387	3.96
x1 = 0.1997	1132.18	1.404	7.34
x1 = 0.2577	1144.22	1.411	10.07
x1 = 0.3222	1154.04	1.417	12.62
x1 = 0.4983	–	1.423	–
x1 = 0.7058	1182.14	1.429	94.63
x1 = 0.7325	1183.22	1.43	104.97
x1 = 0.8659	1187.78	1.432	214.82
x1 = 1	1191.2	1.433	455.81

CCCCn1cc[n+](C)c1.F[B-](F)(F)F [1-butyl-3-methylimidazolium tetrafluoroborate]
Details	mass density [kg/m3]	refractive index	viscosity [mPa·s]
[1]	–	1.422	–
[2]	1200.3	–	100.66

CCCCn1cc[n+](C)c1.F[B-](F)(F)F [1-butyl-3-methylimidazolium tetrafluoroborate] + O
Details	mass density, [4] [kg/m3]	refractive index, [3]	viscosity, [4] [mPa·s]
x1 = 0.036	1050.07	–	1.51
x1 = 0.044	1058.55	1.36	1.67
x1 = 0.1267	1112.51	1.384	3.22
x1 = 0.3134	1158.59	1.405	7.2
x1 = 0.4984	1177.85	1.412	13.63
x1 = 0.5802	1183.49	1.415	19.25
x1 = 0.7488	–	1.418	–
x1 = 0.8089	1194.47	1.419	46.55
x1 = 0.9719	1199.54	1.421	88.87
x1 = 1	1200.3	1.422	100.66

O [water] + CCCCn1cc[n+](C)c1.F[B-](F)(F)F
x2 = 0
Details	refractive index	viscosity [mPa·s]
[3]	1.333	–
[4]	–	0.89

O [water] + CCCCn1cc[n+](C)c1C.F[B-](F)(F)F
x2 = 0
Details	refractive index	viscosity [mPa·s]
[3]	1.333	–
[4]	–	0.89
